Earlier results as cited in patent US20040127531A1, “Adhesive coated sheet for dermal delivery of a selective cyclooxygenase-2 inhibitor” (priority 2002, published 2004).

Tests used:
COX-1 = COX-1 (Homo sapiens, UniProt P23219)
COX-2 = molecular target: T1, COX-2 (Homo sapiens, UniProt P35354)
T1 sequence (P35354 18-604): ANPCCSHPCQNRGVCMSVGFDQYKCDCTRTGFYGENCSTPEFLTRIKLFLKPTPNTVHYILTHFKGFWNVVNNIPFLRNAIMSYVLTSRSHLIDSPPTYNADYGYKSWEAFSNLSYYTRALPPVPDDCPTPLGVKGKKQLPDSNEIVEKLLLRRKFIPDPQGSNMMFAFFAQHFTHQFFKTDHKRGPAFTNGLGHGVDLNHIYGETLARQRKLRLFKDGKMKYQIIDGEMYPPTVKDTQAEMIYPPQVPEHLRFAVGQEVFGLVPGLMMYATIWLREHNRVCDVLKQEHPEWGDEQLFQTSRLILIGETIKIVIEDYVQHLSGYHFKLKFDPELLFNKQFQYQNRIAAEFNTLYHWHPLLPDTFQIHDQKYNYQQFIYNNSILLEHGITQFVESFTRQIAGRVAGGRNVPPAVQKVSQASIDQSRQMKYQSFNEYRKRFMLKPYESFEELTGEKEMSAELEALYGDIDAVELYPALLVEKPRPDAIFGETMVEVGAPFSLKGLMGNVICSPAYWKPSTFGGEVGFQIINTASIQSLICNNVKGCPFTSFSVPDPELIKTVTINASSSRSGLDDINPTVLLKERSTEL

COX-1, sequence (P23219 24-599): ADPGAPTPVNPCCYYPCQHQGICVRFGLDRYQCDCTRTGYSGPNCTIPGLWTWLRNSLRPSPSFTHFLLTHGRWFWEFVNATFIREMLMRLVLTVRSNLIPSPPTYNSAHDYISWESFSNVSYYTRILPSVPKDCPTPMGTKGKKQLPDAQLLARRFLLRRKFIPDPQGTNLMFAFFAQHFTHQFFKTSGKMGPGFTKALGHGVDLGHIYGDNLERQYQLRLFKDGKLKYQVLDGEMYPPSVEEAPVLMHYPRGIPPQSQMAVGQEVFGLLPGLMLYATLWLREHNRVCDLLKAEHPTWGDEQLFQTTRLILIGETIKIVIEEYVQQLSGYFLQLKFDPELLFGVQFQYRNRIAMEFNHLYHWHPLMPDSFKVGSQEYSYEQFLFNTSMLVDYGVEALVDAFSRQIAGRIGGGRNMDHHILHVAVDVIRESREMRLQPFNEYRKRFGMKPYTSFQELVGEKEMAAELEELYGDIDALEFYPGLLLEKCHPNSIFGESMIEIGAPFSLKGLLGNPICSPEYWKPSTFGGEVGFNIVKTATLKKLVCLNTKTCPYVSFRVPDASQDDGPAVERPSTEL

SMILES | in vitro inhibitory activity against COX-1 (COX-1) | in vitro inhibitory activity against COX-2 (COX-2)
CCC(=O)NS(=O)(=O)c1ccc(-c2c(-c3ccccc3)noc2C)cc1 [Parecoxib, N-[[4-(5-methyl-3-phenylisoxazol-4-yl)phenyl]sulfonyl]propanamide] | weak | weak
Cc1onc(-c2ccccc2)c1-c1ccc(S(N)(=O)=O)cc1 [valdecoxib, 4-[5-methyl-3-phenylisoxazol-4-yl]benzenesulfonamide] | weak | –
